Here are results for eight compounds from PubChem BioAssay (NCI).

Some test systems named below: COLO 205 colon; HCC-2998 colon; KM12 colon; OVCAR-4 ovarian; SF-295 CNS; SF-539 CNS; SK-MEL-28 melanoma; SN12C renal; SNB-75 CNS; UACC-257 melanoma.
Common to all, as to experiment: NCI tumour cell line growth inhibition, 48 h

Values joined by “and” are separate entries in the source; they are usually repeats but may differ in a detail not shown here. Identical values can stand only once.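 Grown in 96-well plates, cells were treated for 48 hours with each compound at five concentrations. Insufficient inhibition: endpoint recorded as highest concentration tested. Abbreviation: GI50, concentration required for 50% inhibition of growth. TGI is the concentration that stops growth completely.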

Take `CC(=Nc1ccc(S(N)(=O)=O)cc1)c1c(O)[nH]c2ccccc12`: the GI50 with COLO 205 colon was over 16 µM; in the experiment on HCC-2998 colon, over 25 µM; in the experiment with KM12 colon, 0.872 µM; with OVCAR-4 ovarian, over 25 µM; with SF-295 CNS, over 25 µM; with SF-539 CNS it was over 25 µM. The GI50 in the experiment with SK-MEL-28 melanoma, with SN12C renal, with SNB-75 CNS and in the experiment on UACC-257 melanoma was over 25 µM in each case. The TGI in the experiment with COLO 205 colon, in the experiment with HCC-2998 colon, in the experiment with KM12 colon, with OVCAR-4 ovarian, with SF-295 CNS and in the experiment on SF-539 CNS was over 25 µM throughout. Further, the TGI in the experiment on SK-MEL-28 melanoma, in the experiment on SN12C renal, in the experiment with SNB-75 CNS and in the experiment with UACC-257 melanoma was over 25 µM throughout.
For the compound `Cc1ccc(-n2nc(C(C)(C)C)cc2NC(=O)NCc2cc(F)ccc2Oc2ccc3c(cnn3CCO)c2)cc1`, the GI50 with COLO 205 colon was 0.795 µM and 1.86 µM; in the experiment with HCC-2998 colon it was > 10 µM and 5.39 µM; in the experiment with KM12 colon it was 0.611 µM and 1.22 µM; in the experiment on OVCAR-4 ovarian, > 10 µM and 4.1 µM; in the experiment with SF-295 CNS it was > 10 µM and 10.2 µM; with SF-539 CNS, > 10 µM and 6.83 µM. Also, the GI50 in the experiment with SK-MEL-28 melanoma is 0.511 µM and 0.989 µM; in the experiment on SN12C renal, > 10 µM and 6.27 µM; in the experiment on SNB-75 CNS it was > 10 µM and 14.8 µM; in the experiment with UACC-257 melanoma, 1.19 µM and 2.32 µM. In addition, the TGI is > 10 µM and 10.9 µM with COLO 205 colon; over 48.8 µM in the experiment with HCC-2998 colon; over 35.8 µM in the experiment with KM12 colon; over 100 µM in the experiment on OVCAR-4 ovarian; over 100 µM with SF-295 CNS; over 93.1 µM in the experiment with SF-539 CNS. The TGI in the experiment on SK-MEL-28 melanoma was over 20.9 µM; with SN12C renal, over 100 µM; in the experiment with SNB-75 CNS it was over 100 µM; with UACC-257 melanoma, > 10 µM and 10.4 µM.
As for `[2H]c1nc(=Nc2cc(NC(=O)C=C)c(N(C)CCN(C)C)cc2OC)[nH]c(-c2cn(C([2H])([2H])[2H])c3ccccc23)c1[2H]`, the GI50 was 1.62 µM with COLO 205 colon; 1.44 µM in the experiment on HCC-2998 colon; 3.15 µM with KM12 colon; 3.27 µM with OVCAR-4 ovarian; 1.97 µM in the experiment on SF-295 CNS; 1.47 µM in the experiment on SF-539 CNS. Also, the GI50 in the experiment with SK-MEL-28 melanoma is 1.78 µM; in the experiment with SN12C renal, 1.18 µM; in the experiment on SNB-75 CNS, 10.8 µM; with UACC-257 melanoma it was 2.19 µM. Further, the TGI was found to be 3.06 µM with COLO 205 colon; 2.8 µM with HCC-2998 colon; 11.5 µM in the experiment on KM12 colon; 17.3 µM in the experiment with OVCAR-4 ovarian; 4.5 µM in the experiment on SF-295 CNS; 2.96 µM with SF-539 CNS. Moreover, the TGI with SK-MEL-28 melanoma is 3.33 µM; in the experiment with SN12C renal it was 2.71 µM; in the experiment with SNB-75 CNS it was 24.8 µM; in the experiment on UACC-257 melanoma it was 3.88 µM.
As for `N#Cc1c(-c2ccco2)cc(-c2ccccc2)[nH]c1=O`, the TGI in the experiment on COLO 205 colon, in the experiment with HCC-2998 colon, with KM12 colon, in the experiment with OVCAR-4 ovarian, with SF-295 CNS and in the experiment with SF-539 CNS was over 100 µM each time. The TGI in the experiment with SK-MEL-28 melanoma, in the experiment on SN12C renal, in the experiment on SNB-75 CNS and in the experiment on UACC-257 melanoma was over 100 µM each time.
As to `O=C1[C@H]2ON(c3ccccc3)C(c3ccco3)[C@H]2C(=O)N1c1ccc(Cc2ccc(N3C(=O)[C@@H]4ON(c5ccccc5)C(c5ccco5)[C@@H]4C3=O)cc2)cc1` (stereo not given in full), the TGI with COLO 205 colon, in the experiment with HCC-2998 colon, with KM12 colon, in the experiment with OVCAR-4 ovarian, in the experiment with SF-295 CNS and in the experiment on SF-539 CNS was over 100 µM in each case. The TGI with SK-MEL-28 melanoma, in the experiment with SN12C renal, with SNB-75 CNS and with UACC-257 melanoma was over 100 µM in each case.
As for `CCn1c(-c2nonc2N)nc2ccncc21`, the GI50 in the experiment on COLO 205 colon, in the experiment with HCC-2998 colon, with KM12 colon, with OVCAR-4 ovarian, in the experiment with SF-295 CNS and in the experiment with SF-539 CNS was over 25 µM in each case. The GI50 in the experiment on SK-MEL-28 melanoma, with SN12C renal, with SNB-75 CNS and in the experiment on UACC-257 melanoma was over 25 µM each time. For the same compound, the TGI in the experiment on COLO 205 colon, in the experiment with HCC-2998 colon, in the experiment on KM12 colon, in the experiment on OVCAR-4 ovarian, in the experiment with SF-295 CNS and in the experiment on SF-539 CNS was over 25 µM each time. For the same compound, the TGI with SK-MEL-28 melanoma, with SN12C renal, with SNB-75 CNS and in the experiment on UACC-257 melanoma was over 25 µM throughout.
With `COc1ccc(F)c(F)c1C(=O)c1cnc(NC2CCN(S(C)(=O)=O)CC2)nc1N`, the GI50 is 0.253 µM and 0.15 µM in the experiment on COLO 205 colon; 0.961 µM and 0.987 µM in the experiment with HCC-2998 colon; 0.402 µM and 0.306 µM in the experiment on KM12 colon; 1.44 µM and 1.41 µM with OVCAR-4 ovarian; 0.693 µM and 0.352 µM in the experiment on SF-295 CNS; 0.536 µM and 0.406 µM in the experiment on SF-539 CNS. The GI50 in the experiment with SK-MEL-28 melanoma was 1.06 µM and 0.412 µM; in the experiment on SN12C renal it was 0.94 µM and 0.477 µM; with SNB-75 CNS it was 1.26 µM and 1.09 µM; with UACC-257 melanoma it was 1.44 µM and 1.61 µM. In addition, the TGI is 1.69 µM and 1.48 µM in the experiment on COLO 205 colon; > 26.8 µM and 5.65 µM in the experiment on HCC-2998 colon; over 29.8 µM in the experiment with KM12 colon; over 27.9 µM in the experiment with OVCAR-4 ovarian; over 100 µM in the experiment with SF-295 CNS; 3.13 µM and 3.07 µM with SF-539 CNS. Besides, the TGI is > 27.2 µM and 4.78 µM with SK-MEL-28 melanoma; over 100 µM in the experiment with SN12C renal; 3.62 µM and 2.73 µM with SNB-75 CNS; 6.38 µM and 8.94 µM in the experiment on UACC-257 melanoma.
In the case of `CC(C)Oc1ccc(C(=O)Cn2ccnc2)cc1-n1c(CN2CCN(C(=O)COc3ccc(Cl)cc3)CC2)nc2ccccc2c1=O`, the GI50 in the experiment with COLO 205 colon is 7.34 µM; in the experiment on HCC-2998 colon, 15.7 µM; in the experiment with KM12 colon, 17 µM; in the experiment on OVCAR-4 ovarian it was 3.6 µM; in the experiment on SF-295 CNS, 14.8 µM; in the experiment on SF-539 CNS, 14.4 µM. Also, the GI50 in the experiment with SK-MEL-28 melanoma was 14.1 µM; in the experiment with SN12C renal, 14.6 µM; in the experiment with SNB-75 CNS, 5.49 µM; in the experiment with UACC-257 melanoma it was 13.8 µM. Besides, the TGI in the experiment with COLO 205 colon was 32.7 µM; in the experiment with HCC-2998 colon, 31 µM; with KM12 colon, 36.2 µM; with OVCAR-4 ovarian it was over 64.8 µM; in the experiment with SF-295 CNS it was 31.6 µM; in the experiment on SF-539 CNS it was 30.4 µM. In addition, the TGI in the experiment on SK-MEL-28 melanoma turned out to be 29.9 µM; in the experiment with SN12C renal it was 33.6 µM; with SNB-75 CNS, 32.2 µM; with UACC-257 melanoma, 39.6 µM.
